Reference: paper PMC8151276, “An Integrated Approach toward NanoBRET Tracers for Analysis of GPCR Ligand Engagement” (Molecules, 2021)

Biological target: T1, LGR6 (Homo sapiens, UniProt Q9HBX8)
T1 construct: purchased Promega (in-house HiBiT-GPCR construct library, NanoBRET)
T1 sequence (Q9HBX8 25-967): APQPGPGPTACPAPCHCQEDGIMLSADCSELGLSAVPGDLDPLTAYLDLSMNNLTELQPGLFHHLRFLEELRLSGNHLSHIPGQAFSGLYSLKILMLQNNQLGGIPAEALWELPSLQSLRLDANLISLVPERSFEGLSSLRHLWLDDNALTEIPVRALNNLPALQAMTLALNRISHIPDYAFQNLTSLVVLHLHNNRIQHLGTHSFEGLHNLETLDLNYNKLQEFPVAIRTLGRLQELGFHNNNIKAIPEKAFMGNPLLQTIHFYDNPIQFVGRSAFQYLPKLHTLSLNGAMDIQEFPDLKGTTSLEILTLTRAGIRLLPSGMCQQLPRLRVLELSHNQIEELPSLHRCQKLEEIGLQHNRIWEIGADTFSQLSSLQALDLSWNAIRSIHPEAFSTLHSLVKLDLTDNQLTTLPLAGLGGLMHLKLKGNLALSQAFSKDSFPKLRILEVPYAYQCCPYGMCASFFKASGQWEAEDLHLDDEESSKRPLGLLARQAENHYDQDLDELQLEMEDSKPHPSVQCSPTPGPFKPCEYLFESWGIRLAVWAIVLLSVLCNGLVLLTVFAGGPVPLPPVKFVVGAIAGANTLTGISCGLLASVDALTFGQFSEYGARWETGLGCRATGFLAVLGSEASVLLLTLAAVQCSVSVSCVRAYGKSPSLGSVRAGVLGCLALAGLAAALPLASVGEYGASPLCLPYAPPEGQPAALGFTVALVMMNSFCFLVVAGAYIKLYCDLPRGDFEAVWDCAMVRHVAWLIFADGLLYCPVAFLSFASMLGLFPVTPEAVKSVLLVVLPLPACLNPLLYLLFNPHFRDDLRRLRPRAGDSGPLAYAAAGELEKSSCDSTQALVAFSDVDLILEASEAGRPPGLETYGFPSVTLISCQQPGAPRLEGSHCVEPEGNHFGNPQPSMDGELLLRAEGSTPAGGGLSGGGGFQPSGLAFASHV
Assay: NanoBRET screen HiBiT-LGR6 in HEK293
Type: binding
Protocol: Each tracer candidate was screened across the entire library of HiBiT-GPCR constructs using NanoBRET as the detection modality. As depicted in Figure 4A, the specificity of interactions was evaluated through decrease in BRET due to competitive displacement of a bound tracer by excess parental compound. Each tracer was analyzed for binding to each HiBiT-GPCR fusion in the absence and in the presence of competing parental compound. Briefly, HEK293 cells were transfected with HiBiT-GPCR constructs diluted into promoterless DNA to reduce expression and maximize translocation to the cell surface. Each tracer candidate was then screened at concentrations of 1 μM and 0.1 μM across cells expressing these fusions. Cells were treated for 1.5 h with tracer either alone or in the presence of 20 μM competing parental compound (i.e., control). BRET was measured upon addition of purified LgBiT and subsequent complementation with HiBiT genetically fused to a GPCR. The specificity of interactions was assessed through a decrease in BRET signal due to competitive displacement of the bound tracer. To further gauge the robustness of these interactions, the fold response over the control (i.e., BRETtracer/BRETcontrol) was calculated. We chose a 1.5-fold response, which translates to ≥7-fold signal over noise as the minimal threshold required to score an interaction as positive. […]. Below we highlight the screening results obtained for our exemplary fluorescent tracers based on Clozapine, Amitriptyline and AZD1283.
HiBiT-GPCR DNA constructs were diluted in 10 mM Tris pH 8 to a final concentration of 0.01 μg/μL, arrayed in 96-well plates and stored at −20 °C. For transfection, HEK293 cells were suspended in Opti-MEM (without phenol red) supplemented with 2% fetal bovine serum (Seradigm) and 100 units/mL penicillin–streptomycin (Gibco) at a final concentration of 220,000 cells/mL and dispensed into white 96-well plates at 90 μL/well. Subsequent transfections and screens were carried using an Agilent Bravo Automated Liquid Handling Platform. First, the 96-well HiBiT DNA arrays were diluted 25-fold in Opti-MEM (without serum or phenol red) to a final concentration of 0.0004 μg/μL and 20 μL of the diluted DNAs were transferred into new 96-well plates. Next, promoterless carrier DNA (1 μg/μL) was diluted 25-fold (0.04 μg/μL) and then dispensed into the diluted arrays at 20 μL/well. Following brief mixing, Viafect transfection reagent (Promega) diluted 16-fold into Opti-MEM was dispensed into the plates at 40 μL/well. After mixing by pipetting, plates were incubated for 10 min on the pipetting station deck. The DNA-transfection reagent complexes were then added to plates containing cells. To facilitate the screen, 10 μL of DNA-transfection reagent complexes were added in duplicates to the top 4 and bottom 4 rows, resulting in two identical 48-well arrays per plate. Plates with transfected cells were incubated for 18–20 h at 37 °C/5% CO2. A screen of each tracer across the entire library using two different concentrations requires duplicate plates of transfected cells. Depending on the number of tracers being screened, transfections can be scaled up using the same ratios. The next day, for each tracer, four 20× screening solutions in tracer dilution buffer (Promega) were prepared: two duplicates at final concentration of 20 μM and two duplicates at a final concentration of 2 μM. A competing unmodified compound was added to one of each duplicate at a final concentration of 400 μM. The four resulting solutions were diluted 4-fold in Opti-MEM without serum or phenol red to generate 5× solutions (5 µM and 0.5 µM tracer +/− 100 μM competing compound). To screen the library, a BioTek MultiFlo FX liquid dispenser was used to dispense 22.5 µL of tracer solution to the top 4 rows and 22.5 µL tracer + competing compound solution to the 4 bottom rows. Plates were briefly mixed on an orbital shaker and incubated for 1.5 h at room temperature. […]

Row | Compound | NanoBRET Fold Response (LGR6, tracer 0.1μM) | NanoBRET Fold Response (LGR6, tracer 1μM) | further results
1 | O=C(CCc1ccc2n1[B-](F)(F)[N+]1=C(c3ccc[nH]3)C=CC1=C2)NCc1ccc(C(=O)NCCOCCC(=O)N[C@@H]2CC[C@@]3(O)[C@H]4Cc5ccc(O)c6c5[C@@]3(CCN4CC3CC3)[C@H]2O6)cc1 [Naltrexone-3-NB590] | 1.22 | 0.79 | 
2 | CCCn1c(=O)c2[nH]c(-c3ccc(OCC(=O)NCCNC(=O)CCOCCNC(=O)c4ccc(CNC(=O)CCc5ccc6n5[B-](F)(F)[N+]5=C(c7ccc[nH]7)C=CC5=C6)cc4)cc3)nc2n(CCC)c1=O [XAC-3-NB590] | 0.99 | 0.90 | 
3 | CC(C)N(CC[C@H](c1ccccc1)c1cc(CCNC(=O)c2ccc(CNC(=O)CCc3ccc4n3[B-](F)(F)[N+]3=C(c5ccc[nH]5)C=CC3=C4)cc2)ccc1O)C(C)C [Tolterodine-BZ-NB590] | 1.31 | 0.94 | 
4 | COc1ccc2[nH]c(-c3ccc(CNC(=O)CCOCCOCCOCCOCCNC(=O)CCc4ccc5n4[B-](F)(F)[N+]4=C(c6ccc[nH]6)C=CC4=C5)cc3)c(CCNC(C)=O)c2n1 [AzomelatoninICO9-2-NB590] |  |  | NanoBRET Fold Response (0.1μM tracer): 0.62; NanoBRET Fold Response (1μM tracer): 0.95
5 | CN1CCN(C2=Nc3cc(Cl)ccc3N(CC(=O)NCCOCCOCCOCCOCCNC(=O)CCc3ccc4n3[B-](F)(F)[N+]3=C(c5ccc[nH]5)C=CC3=C4)c3ccccc32)CC1 [Clozapine-c-2-NB590] |  |  | NanoBRET Fold Response (LGR6, 0.1μM tracer): 0.89; NanoBRET Fold Response (LGR6, 1μM tracer): 0.91
6 | COc1ccccc1N1CCN(CCCCN2C(=O)c3ccc(CNC(=O)CCOCCNC(=O)c4ccc(CNC(=O)CCc5ccc6n5[B-](F)(F)[N+]5=C(c7ccc[nH]7)C=CC5=C6)cc4)cc3C2=O)CC1 [NAN-190-3-NB590] | 1.39 | 0.60 | 
7 | Cc1nc2n(c(=O)c1CCN1CCC(c3noc4cc(F)ccc34)CC1)CCCC2OC(=O)NCCOCCOCCOCCOCCNC(=O)CCc1ccc2n1[B-](F)(F)[N+]1=C(c3ccc[nH]3)C=CC1=C2 (stereo not drawn) [Risperidone-2-NB590] | 1.04 | 1.02 | 
8 | O=C(CCOCCOCCOCCOCCNC(=O)CCc1ccc2n1[B-](F)(F)[N+]1=C(c3ccc[nH]3)C=CC1=C2)NCCCN1CCN(C2=Nc3ccccc3Oc3ccc(Cl)cc32)CC1 [Loxapine-a-2-NB590] | 0.91 | 1.25 | 
9 | CC(C)N(CC[C@H](c1ccccc1)c1cc(CCNC(=O)CCOCCOCCOCCOCCNC(=O)CCc2ccc3n2[B-](F)(F)[N+]2=C(c4ccc[nH]4)C=CC2=C3)ccc1O)C(C)C [Tolterodine-2-NB590] | 1.39 | 1.36 | 
10 | N#CN=C(NCCCOc1cccc(CN2CCCCC2)c1)NCCNC(=O)CCOCCOCCOCCOCCNC(=O)CCc1ccc2n1[B-](F)(F)[N+]1=C(c3ccc[nH]3)C=CC1=C2 [Aminopotentidine-2-NB590] | 0.96 | 0.88 | 
11 | CCOC(=O)c1cc(C#N)c(N2CCC(C(=O)NS(=O)(=O)Cc3ccccc3/C=C/C(=O)NCCNC(=O)CCc3ccc4n3[B-](F)(F)[N+]3=C(c5ccc[nH]5)C=CC3=C4)CC2)nc1C [AZD1283-1-NB590] |  |  | NanoBRET Fold Response (LGR6, 0.1μM): 1.27; NanoBRET Fold Response (LGR6, 1μM): 0.90
12 | CN(C)CCC=C1c2ccccc2CCc2ccc(C(=O)NCCNC(=O)CCOCCOCCOCCOCCNC(=O)CCc3ccc4n3[B-](F)(F)[N+]3=C(c5ccc[nH]5)C=CC3=C4)cc21 [Amitriptyline-b-2-NB590] |  |  | NanoBRET Fold Response (tracer at 0.1μM, listed as amitriptyline-b-2-NB590): 0.92; NanoBRET Fold Response (tracer at 1μM, listed as amitriptyline-b-2-NB590): 1.14
13 | CN(C)CCC=C1c2ccccc2CCc2ccc(C(=O)NCCNC(=O)CCOCCOCCOCCOCCNC(=O)CCc3ccc4n3[B-](F)(F)[N+]3=C(c5ccc[nH]5)C=CC3=C4)cc21 [Amitriptyline-a-2-NB590] |  |  | NanoBRET Fold Response (tracer at 0.1μM): 0.93; NanoBRET Fold Response (tracer at 1μM): 0.97
14 | O=C(CCc1ccc2n1[B-](F)(F)[N+]1=C(c3ccc[nH]3)C=CC1=C2)NCCOCCOCCNC(=O)OCCOCCN1CCN(C2=Nc3ccccc3Sc3ccccc32)CC1 [Quetiapine-a-2-NB590] | 0.93 | 0.96 | 
15 | Cc1cc2c(s1)Nc1ccccc1N=C2N1CCN(CCCNC(=O)CCOCCOCCOCCOCCNC(=O)CCc2ccc3n2[B-](F)(F)[N+]2=C(c4ccc[nH]4)C=CC2=C3)CC1 [Olanzapine-a-2-NB590] | 1.09 | 1.22 | 
16 | CN1CCN(C2=Nc3cc(Cl)ccc3Nc3ccc(CNC(=O)CCOCCOCCOCCOCCNC(=O)CCc4ccc5n4[B-](F)(F)[N+]4=C(c6ccc[nH]6)C=CC4=C5)cc32)CC1 [Clozapine-b-2-NB590] |  |  | NanoBRET Fold Response (LGR6, 0.1μM tracer): 1.31; NanoBRET Fold Response (LGR6, 1μM tracer): 0.89
17 | COc1ccc2c(n1)c(CCNC(C)=O)cn2CCNC(=O)CCc1ccc2n1[B-](F)(F)[N+]1=C(c3ccc[nH]3)C=CC1=C2 [Azamelatonin-1-NB590] |  |  | NanoBRET Fold Response (0.1μM tracer): 1.03; NanoBRET Fold Response (1μM tracer): 0.55
18 | CN(CCC=C1c2ccccc2CCc2ccccc21)C(=O)CCOCCOCCOCCOCCNC(=O)CCc1ccc2n1[B-](F)(F)[N+]1=C(c3ccc[nH]3)C=CC1=C2 [Amitriptyline-e-2-NB590] |  |  | NanoBRET Fold Response (tracer at 1μM): 1.16
19 | O=C(CCc1ccc2n1[B-](F)(F)[N+]1=C(c3ccc[nH]3)C=CC1=C2)NCc1ccc(C(=O)NCCOCCOCCNCC(O)COc2cccc3ccccc23)cc1 (stereo not drawn) [Propranolol-3-NB590] |  |  | NanoBRET Fold Response (LGR6, 0.1μM): 1.26; NanoBRET Fold Response (LGR6, 1μM): 1.01
20 | O=C(CCOCCOCCOCCOCCNC(=O)CCc1ccc2n1[B-](F)(F)[N+]1=C(c3ccc[nH]3)C=CC1=C2)NCCCN1CCN(C2=Nc3cc(Cl)ccc3Nc3ccccc32)CC1 [Clozapine-a-2-NB590] |  |  | NanoBRET Fold Response (LGR6, 0.1μM tracer): 1.03; NanoBRET Fold Response (LGR6, 1μM tracer): 0.66
